# Experimental data reported in US12319701B2, “Antagonists of the muscarinic acetylcholine receptor M4” (priority 2019, dated 2025).
# pIC50: −log10 of the molar value.
# Molecular target: T1, Human M4 (Homo sapiens, UniProt P08173)
# T1 construct: expressed in transfected cells; host or cells: CHO-K1 (ATCC), stably co-expressing chimeric G protein Gqi5
# T1 sequence (P08173 1-479): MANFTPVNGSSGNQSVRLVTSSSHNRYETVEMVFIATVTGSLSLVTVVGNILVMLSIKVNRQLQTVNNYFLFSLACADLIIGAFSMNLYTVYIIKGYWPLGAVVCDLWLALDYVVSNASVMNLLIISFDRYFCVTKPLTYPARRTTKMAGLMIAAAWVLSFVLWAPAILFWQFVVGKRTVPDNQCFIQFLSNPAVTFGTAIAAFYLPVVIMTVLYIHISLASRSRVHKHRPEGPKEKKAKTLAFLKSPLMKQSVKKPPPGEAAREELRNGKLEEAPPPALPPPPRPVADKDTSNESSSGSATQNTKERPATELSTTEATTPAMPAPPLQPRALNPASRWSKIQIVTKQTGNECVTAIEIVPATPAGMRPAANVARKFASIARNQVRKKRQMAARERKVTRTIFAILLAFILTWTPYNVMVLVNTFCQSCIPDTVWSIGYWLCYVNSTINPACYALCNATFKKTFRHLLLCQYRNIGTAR
# Assay: mAChR M4 cell-based functional assay (calcium flux, Fluo-4, M4/Gqi5/CHO-K1 cells)
# Settings: for remaining activity at 30 µM: CHO-K1, read-out: Human M4 Emin (%), % ACh maximum at 30 μM
# Procedure: Human or rat M4 cDNA, along with the chimeric G protein Gqi5, were transfected into Chinese hamster ovary (CHO-K1) cells purchased from the American Type Culture Collection using Lipofectamine2000. M4/Gqi5/CHO cells were grown in Ham's F-12 medium containing 10% heat-inactivated fetal bovine serum (FBS), 20 mM HEPES, 500 μg/mL 418 sulfate, and 200 μg/mL Hygromycin B.
# For high throughput measurement of agonist-evoked increases in intracellular calcium, CHO-K1 cells stably expressing muscarinic receptors were plated in growth medium lacking 418 and hygromycin at 15,000 cells/20 μL/well in Greiner 384-well black-walled, tissue culture (TC)-treated, clear-bottom plates (VWR). Cells were incubated overnight at 37° C. and 5% CO2. The next day, cells were washed using an ELX 405 (BioTek) with assay buffer; the final volume was then aspirated to 20 μL. Next, 20 μL of a 2.3 μM stock of Fluo-4/acetoxymethyl ester (Invitrogen, Carlsbad, CA), prepared as a 2.3 mM stock in DMSO and mixed in a 1:1 ratio with 10% (w/v) Pluronic F-127 and diluted in assay buffer, was added to the wells and the cell plates were incubated for 50 min at 37° C. and 5% CO2. Dye was removed by washing with the ELX 405 and the final volume was aspirated to 20 μL. Compound master plates were formatted in a 10 point concentration-response curve (CRC) format (1:3 dilutions) in 100% DMSO with a starting concentration of 10 or 1 mM using a BRAVO liquid handler (Agilent). Test compound CRCs were then transferred to daughter plates (240 nL) using the Echo acoustic plate reformatter (Labcyte, Sunnyvale, CA) and then diluted into assay buffer (40 μL) to a 2× stock using a Thermo Fisher Combi (Thermo Fisher Scientific, Waltham, MA).
# Calcium flux was measured using the Functional Drug Screening System (FDSS) 6000 or 7000 (Hamamatsu Corporation, Tokyo, Japan) as an increase in the fluorescent static ratio. Compounds were applied to cells (20 μL, 2×) using the automated system of the FDSS at 2 seconds into the protocol and the data were collected at 1 Hz. At 143 s, 10 μL of an EC20 concentration of the muscarinic receptor agonist acetylcholine was added (5×), followed by the addition of 12 μL of an EC80 concentration of acetylcholine at the 268 s time point (5×). Agonist activity was analyzed as a concentration-dependent increase in calcium mobilization upon compound addition. Positive allosteric modulator activity was analyzed as a concentration-dependent increase in the EC20 acetylcholine response. Antagonist activity was analyzed as a concentration-dependent decrease in the ECK) acetylcholine response; for the purposes of the tables herein, an IC50 (inhibitory concentration 50) was calculated as a concentration-dependent decrease of the response elicited by an ECK) concentration of acetylcholine. Concentration-response curves were generated using a four-parameter logistical equation in XLFit curve fitting software (IDBS, Bridgewater, NJ) for Excel (Microsoft, Redmond, WA) or Prism (GraphPad Software, Inc., San Diego, CA) or the Dotmatics software platform (Dotmatics, Bishop's Stortford, UK).
# Compounds were synthesized as described above. Activity (IC50 and Emin) was determined in the mAChR M4 cell-based functional assay as described above and the data are shown in Table 2.
SMILES,pIC50,remaining activity at 30 µM
"Clc1nnc(N[C@H]2C[C@@H]3CN(CC4CCOCC4)C[C@@H]3C2)c2ccsc12 [compound 1, 7-chloro-N-((3aR,5s,6aS)-2-((tetrahydro-2H-pyran-4-yl)methyl)octahydrocyclopenta[c]pyrrol-5-yl)thieno[2,3-d]pyridazin-4-amine]",6.69,3%
"Cc1ccc(F)cc1-c1nnc(N[C@H]2C[C@@H]3CN(CC4CCOCC4)C[C@@H]3C2)c2ccsc12 [compound 3, 7-(5-fluoro-2-methylphenyl)-N-((3aR,5s,6aS)-2-((tetrahydro-2H-pyran-4-yl)methyl)octahydrocyclopenta[c]pyrrol-5-yl)thieno[2,3-d]pyridazin-4-amine]",8.29,3%
"Cc1ccc(C)c(-c2nnc(N[C@H]3C[C@@H]4CN(CC5CCOCC5)C[C@@H]4C3)c3ccsc23)c1 [compound 4, 7-(2,5-dimethylphenyl)-N-((3aR,5s,6aS)-2-((tetrahydro-2H-pyran-4-yl)methyl)octahydrocyclopenta[c]pyrrol-5-yl)thieno[2,3-d]pyridazin-4-amine]",7.87,3%
"COc1ccccc1-c1nnc(N[C@H]2C[C@@H]3CN(CC4CCOCC4)C[C@@H]3C2)c2ccsc12 [compound 6, 7-(2-methoxyphenyl)-N-((3aR,5s,6aS)-2-((tetrahydro-2H-pyran-4-yl)methyl)octahydrocyclopenta[c]pyrrol-5-yl)thieno[2,3-d]pyridazin-4-amine]",5.09,20%
"Fc1ccccc1-c1nnc(N[C@H]2C[C@@H]3CN(CC4CCOCC4)C[C@@H]3C2)c2ccsc12 [compound 7, 7-(2-fluorophenyl)-N-((3aR,5s,6aS)-2-((tetrahydro-2H-pyran-4-yl)methyl)octahydrocyclopenta[c]pyrrol-5-yl)thieno[2,3-d]pyridazin-4-amine]",5.11,15%
"c1ccc(-c2nnc(N[C@H]3C[C@@H]4CN(CC5CCOCC5)C[C@@H]4C3)c3ccsc23)cc1 [compound 8, 7-phenyl-N-((3aR,5s,6aS)-2-((tetrahydro-2H-pyran-4-yl)methyl)octahydrocyclopenta[c]pyrrol-5-yl)thieno[2,3-d]pyridazin-4-amine]",8.33,3%
"Fc1ccc(F)c(-c2nnc(N[C@H]3C[C@@H]4CN(CC5CCOCC5)C[C@@H]4C3)c3sccc23)c1 [compound 10, 4-(2,5-difluorophenyl)-N-((3aR,5s,6aS)-2-((tetrahydro-2H-pyran-4-yl)methyl)octahydrocyclopenta[c]pyrrol-5-yl)thieno[2,3-d]pyridazin-7-amine]",8.20,4%
"Clc1nnc(N[C@H]2C[C@@H]3CN(CC4CCOCC4)C[C@@H]3C2)c2sccc12 [compound 12, 4-chloro-N-((3aR,5s,6aS)-2-((tetrahydro-2H-pyran-4-yl)methyl)octahydrocyclopenta[c]pyrrol-5-yl)thieno[2,3-d]pyridazin-7-amine]",6.55,5%

# The next molecules have a higher pIC50 than those just listed; values first:
pIC50,remaining activity at 30 µM,SMILES
8.54,3%,"Fc1ccc(F)c(-c2nnc(N[C@H]3C[C@@H]4CN(CC5CCOCC5)C[C@@H]4C3)c3ccsc23)c1 [compound 2, 7-(2,5-difluorophenyl)-N-((3aR,5s,6aS)-2-((tetrahydro-2H-pyran-4-yl)methyl)octahydrocyclopenta[c]pyrrol-5-yl)thieno[2,3-d]pyridazin-4-amine]"
8.61,4%,"Cc1ccccc1-c1nnc(N[C@H]2C[C@@H]3CN(CC4CCOCC4)C[C@@H]3C2)c2ccsc12 [compound 5, N-((3aR,5s,6aS)-2-((tetrahydro-2H-pyran-4-yl)methyl)octahydrocyclopenta[c]pyrrol-5-yl)-7-(o-tolyl)thieno[2,3-d]pyridazin-4-amine]"
8.53,3%,"Cn1cc2cc(-c3nnc(N[C@H]4C[C@@H]5CN(CC6CCOCC6)C[C@@H]5C4)c4ccsc34)ccc2n1 [compound 9, 7-(2-methyl-2H-indazol-5-yl)-N-((3aR,5s,6aS)-2-((tetrahydro-2H-pyran-4-yl)methyl)octahydrocyclopenta[c]pyrrol-5-yl)thieno[2,3-d]pyridazin-4-amine]"
8.80,3%,"Cc1ccc(F)cc1-c1nnc(N[C@H]2C[C@@H]3CN(CC4CCOCC4)C[C@@H]3C2)c2sccc12 [compound 11, 4-(5-fluoro-2-methylphenyl)-N-((3aR,5s,6aS)-2-((tetrahydro-2H-pyran-4-yl)methyl)octahydrocyclopenta[c]pyrrol-5-yl)thieno[2,3-d]pyridazin-7-amine]"
9.16,3%,"Cn1cc2cc(-c3nnc(N[C@H]4C[C@@H]5CN(CC6CCOCC6)C[C@@H]5C4)c4sccc34)ccc2n1 [compound 13, 4-(2-methyl-2H-indazol-5-yl)-N-((3aR,5s,6aS)-2-((tetrahydro-2H-pyran-4-yl)methyl)octahydrocyclopenta[c]pyrrol-5-yl)thieno[2,3-d]pyridazin-7-amine]"
8.84,4%,"c1ccc(-c2nnc(N[C@H]3C[C@@H]4CN(CC5CCOCC5)C[C@@H]4C3)c3sccc23)cc1 [compound 14, 4-phenyl-N-((3aR,5s,6aS)-2-((tetrahydro-2H-pyran-4-yl)methyl)octahydrocyclopenta[c]pyrrol-5-yl)thieno[2,3-d]pyridazin-7-amine]"
8.64,3%,"Fc1ccccc1-c1nnc(N[C@H]2C[C@@H]3CN(CC4CCOCC4)C[C@@H]3C2)c2sccc12 [compound 15, 4-(2-fluorophenyl)-N-((3aR,5s,6aS)-2-((tetrahydro-2H-pyran-4-yl)methyl)octahydrocyclopenta[c]pyrrol-5-yl)thieno[2,3-d]pyridazin-7-amine]"
8.77,4%,"Fc1cc(F)c(F)c(-c2nnc(N[C@H]3C[C@@H]4CN(CC5CCOCC5)C[C@@H]4C3)c3ccsc23)c1 [compound 16, N-((3aR,5s,6aS)-2-((tetrahydro-2H-pyran-4-yl)methyl)octahydrocyclopenta[c]pyrrol-5-yl)-7-(2,3,5-trifluorophenyl)thieno[2,3-d]pyridazin-4-amine]"
9.19,3%,"Cc1c(-c2nnc(N[C@H]3C[C@@H]4CN(CC5CCOCC5)C[C@@H]4C3)c3ccsc23)ccc2nn(C)cc12 [compound 17, 7-(2,4-dimethyl-2H-indazol-5-yl)-N-((3aR,5s,6aS)-2-((tetrahydro-2H-pyran-4-yl)methyl)octahydrocyclopenta[c]pyrrol-5-yl)thieno[2,3-d]pyridazin-4-amine]"
8.52,3%,"[2H]C([2H])(C1CCOCC1)N1C[C@H]2C[C@H](Nc3nnc(-c4cc(F)ccc4F)c4sccc34)C[C@H]2C1 [compound 18, 7-(2,5-difluorophenyl)-N-((3aR,5s,6aS)-2-((tetrahydro-2H-pyran-4-yl)methyl-d2)octahydrocyclopenta[c]pyrrol-5-yl)thieno[2,3-d]pyridazin-4-amine]"
